Experimental data taken from PubChem BioAssay (NCI).
Where “and” joins values, the source holds several entries; their conditions need not be identical. Equal values may be shown once.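 Cultured in 96-well plates, cells were exposed to test compound for 48 hours across five concentrations. GI50 marks 50% less growth. TGI: total growth inhibition.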

Assays:
Assay in all cases: NCI tumour cell line growth inhibition, 48 h
UO-31 renal = system: UO-31 renal
SK-MEL-28 melanoma = system: SK-MEL-28 melanoma
CCRF-CEM leukemia = system: CCRF-CEM leukemia
NCI-H23 lung = system: NCI-H23 lung
ACHN renal = system: ACHN renal
SK-MEL-5 melanoma = system: SK-MEL-5 melanoma
SW-620 colon = system: SW-620 colon
OVCAR-4 ovarian = system: OVCAR-4 ovarian
CAKI-1 renal = system: CAKI-1 renal
HCT-15 colon = system: HCT-15 colon

Row | SMILES | GI50 (UO-31 renal) [µM] | TGI (UO-31 renal) | TGI (SK-MEL-28 melanoma) [µM] | GI50 (CCRF-CEM leukemia) [µM] | GI50 (NCI-H23 lung) [µM] | GI50 (ACHN renal) [µM] | GI50 (SK-MEL-5 melanoma) [µM] | TGI (SK-MEL-5 melanoma) | GI50 (SW-620 colon) [µM] | GI50 (OVCAR-4 ovarian) [µM] | TGI (OVCAR-4 ovarian) | GI50 (CAKI-1 renal) [µM] | TGI (CAKI-1 renal) | GI50 (HCT-15 colon) [µM] | TGI (HCT-15 colon) [µM] | GI50 (SK-MEL-28 melanoma) [µM] | TGI (CCRF-CEM leukemia) [µM] | TGI (NCI-H23 lung) [µM] | TGI (ACHN renal) [µM] | TGI (SW-620 colon) [µM]
1 | CC1=C(N2CC2)C(=O)C(CO)=C(N2CC2)C1=O | 0.00512 | 0.0231 µM and 0.0319 µM | 0.228 | 0.000612 | 0.00143 | 0.00047 | 0.0399 | 0.162 µM and 0.312 µM | 0.00368 | 0.195 | 0.904 µM and 0.587 µM | 0.00256 | 0.412 µM and 0.243 µM | 0.02 | 0.584 | – | – | – | – | –
2 | Clc1ccc(-c2nc3c(-c4ccc(Cl)cc4)nc(-c4ccccc4)cn3c2-c2ccc(Cl)cc2)cc1 | > 50 | > 50 µM | > 50 | > 50 | > 50 | > 50 | > 50 | > 50 µM | > 50 | > 50 | > 50 µM | 27.8 | > 50 µM | > 50 | > 50 | > 50 | > 50 | > 50 | > 50 | > 50
3 | NC(=O)c1ccccc1NC(=O)C(=O)C(C(=O)c1ccc2ccccc2c1)C1OC(=O)c2ccccc21 (stereo unspecified) | – | 29.4 µM | – | – | – | – | – | 24.6 µM | – | – | 32.9 µM | – | 33 µM | – | 41.5 | – | 77.6 | – | > 100 | 27.9
4 | COc1cc(CNC(=O)/C=C/C=C/c2ccc3c(c2)OCO3)ccc1OCc1cn(-c2ccc(Cl)c(Cl)c2)nn1 | 3.15 | 13.7 µM | 3.46 | 1.44 | 0.588 | 0.504 | 1.77 | 3.69 µM | 0.362 | 1.09 | 2.72 µM | 1.62 | 3.57 µM | 0.519 | 2.5 | 1.67 | 12.6 | 2.34 | 1.77 | 1.55
5 | N#Cc1ccc(Oc2nccc(-c3c(-c4ccc(F)cc4)ncn3C3CCNCC3)n2)cc1 | 11.9 | > 25 µM | > 25 | 7.79 | > 25 | > 23.7 | 14.1 | > 25 µM | > 15.4 | > 25 | > 25 µM | > 25 | > 25 µM | > 14.8 | > 25 | > 25 | 24.7 | > 25 | > 25 | > 25
6 | CC(=O)OC1(C#N)CC2OC1C1C2N1C(=O)c1ccccc1 (stereo unspecified) | – | > 100 µM | > 100 | – | – | – | – | > 100 µM | – | – | > 100 µM | – | > 100 µM | – | > 100 | – | > 100 | > 100 | > 100 | > 100
7 | Cc1c2ccccc2c(C)c2c3c(ccc12)C(=O)C=CC3=O | – | 41.7 µM | > 57.1 | – | – | – | – | > 79.3 µM | – | – | 39.4 µM | – | 46.3 µM | – | 42.4 | – | 6.75 | > 85.4 | 33.3 | 47
8 | c1cncc(CNc2ccccc2-c2nnc(Nc3ccc4c(c3)OCO4)o2)c1 | 0.31 | > 100 µM | > 100 | 0.0801 | 0.0662 | 0.717 | 0.0449 | > 100 µM | 0.0413 | 1 | > 100 µM | 0.0551 | > 100 µM | 0.0578 | > 100 | 0.0654 | > 100 | > 100 | > 100 | > 100
9 | COc1cccc(Nc2nc(NNC(=O)Cc3ccccc3)nc(NNC(=O)c3ccncc3)n2)c1 | 32.3 | > 100 µM | > 100 | > 100 | > 100 | – | > 100 | > 100 µM | – | > 100 | > 100 µM | > 100 | > 100 µM | > 100 | > 100 | – | > 100 | > 100 | > 100 | > 100
10 | CCN1CCC[C@H]1c1cc(O)c2c(c1OC)C[C@H]1C[C@H]3[C@H](N)C(=O)C(C(N)=O)=C(O)[C@@]3(O)C(=O)C1=C2O | 0.0528 | 2.93 µM | 1.26 | 0.0634 | 0.167 | 0.0517 | 0.0797 | 0.951 µM | 0.0536 | 0.0675 | 2.73 µM | 0.0293 | 0.62 µM | 0.0547 | 5.17 | 0.0668 | 1.73 | 2.18 | 0.802 | 3.24
11 | CC(=O)Nc1ccc2nncnc2c1 | – | > 100 µM | > 100 | – | – | – | – | > 100 µM | – | – | > 100 µM | – | > 100 µM | – | > 100 | – | > 100 | > 100 | > 100 | > 100
12 | O=C1NC(=NCC(CO)c2ccccc2)S/C1=C\c1ccc2ncccc2c1 (stereo unspecified) | > 25 | > 25 µM | > 25 | 19.5 | 12.1 | 24.4 | > 25 | > 25 µM | 7.74 | > 22.1 | > 25 µM | > 25 | > 25 µM | > 21.8 | > 25 | > 25 | > 25 | > 25 | > 25 | > 25
13 | CCN1CCN(CCOc2ccc(CNc3ccc4nc(CCC5CCCCC5)[nH]c4c3)cc2)CC1 | 1.42 | 2.79 µM | – | 1.61 | 2.38 | 2.79 | 1.73 | 3.17 µM | 1.91 | 2.61 | 11.1 µM | 2.01 | 4.11 µM | 1.43 | 3.41 | – | 8.75 | 6.94 | 7.96 | 4.14
14 | Cc1ccc2nc3c(Cl)cc(=O)cc-3sc2c1 | – | > 100 µM | 81.4 | – | – | – | – | 30.8 µM | – | – | 30.7 µM | – | 71.1 µM | – | 32 | – | 19.8 | – | 54.4 | 43.5
15 | CC(=O)CC(=O)CCCC(=O)Nc1ccc(Cl)cc1C | – | > 100 µM | – | – | – | – | – | > 100 µM | – | – | > 100 µM | – | > 100 µM | – | > 100 | – | > 100 | > 100 | > 100 | > 100
